Values quoted from earlier work in patent US20110159080A1, “COMPOSITION COMPRISING LIPOSOME-ENTRAPPED DOXORUBICIN AND METHODS OF ADMINISTRATION” (priority 2008, published 2011).

Columns and labels:
[1] = test system: recurrent stage III or IV ovarian cancer
[2] = test system: primary or secondary platinum-resistant ovarian cancer; conditions: bevacizumab 15 mg/kg every 21 days
[3] = test system: persistent or recurrent epithelial ovarian cancer
[4] = test system: xenotransplant models of colon cancer; conditions: nude (athymic) mice
[5] = test system: platinum resistant advanced ovarian carcinoma; conditions: human, in vivo

Compound: CC[C@@]1(O)C(=O)OCc2c1cc1n(c2=O)Cc2cc3c(CN(C)C)c(O)ccc3nc2-1 [topotecan]
- toxicity profile (recurrent ovarian cancer; DOXIL 50 mg/m^2 every 4 weeks, topotecan 1.5 mg/m^2/day for 5 days every 3 weeks): significant myelosuppression and alopecia
- median OS (recurrent ovarian cancer; subset with platinum-sensitive disease, p=0.008): 71.1 weeks
- median PFS (recurrent ovarian cancer; subset with platinum-sensitive disease, p=0.037): 23.3 weeks

Compound: N.N.O=C([O-])C1(C(=O)[O-])CCC1.[Pt+2] [carboplatin]
- response rate ([1]; DOXIL 30 mg/m^2 plus carboplatin AUC 5 or carboplatin alone AUC 5, every 4 weeks, p=0.02): 32%
- estimated median PFS ([1]; every 4 weeks): 8 months
- estimated median overall survival ([1]; every 4 weeks, p=0.02): 18 months

Compound: bevacizumab: recombinant humanized monoclonal IgG1 antibody that binds to and inhibits human vascular endothelial growth factor (VEGF)
- 6-month PFS rate [2]: 27%
- response rate [2]: 16%
- complete responses (number of subjects) ([3]; 62 eligible subjects): two
- subjects surviving progression free for at least 6 months ([3]; 62 eligible subjects): 40.3%
- subjects with clinical response ([3]; bevacizumab 15 mg/kg IV every 21 days, 62 eligible subjects): 21.0%
- Grade 3 adverse events: GI (number) ([3]; in vivo): 3
- Grade 3 adverse events: coagulation (number) ([3]; in vivo): 1
- Grade 3 adverse events: constitutional (number) ([3]; in vivo): 1
- Grade 3 adverse events: dyspnea (number) ([3]; in vivo): 1
- Grade 3 adverse events: hematologic (number) ([3]; in vivo): 1
- Grade 3 adverse events: hepatic (number) ([3]; in vivo): 1
- Grade 3 adverse events: hypertension (number) ([3]; in vivo): 6
- Grade 3 adverse events: pain (number) ([3]; in vivo): 3
- Grade 3 adverse events: thromboembolism (number) ([3]; in vivo): 1
- Grade 4 adverse events: proteinuria (number) ([3]; in vivo): 1
- Grade 4 adverse events: pulmonary embolus (number) ([3]; in vivo): 1
- Grade 4 adverse events: vomiting and constipation (number) ([3]; in vivo): 1
- median PFS ([3]; in vivo): 4.7 months
- median overall survival ([3]; in vivo): 17 months
- median response duration ([3]; in vivo): 10 months
- effect on metastatic disease progression [4]: inhibition of metastatic disease progression
- effect on microvascular growth [4]: reduction in microvascular growth
- cases of perforation [5]: no cases of perforation
